{"source": "patent US20220268782A1", "about": "“METHODS FOR PREDICTING AND TREATING CARDIAC DYSFUNCTION” (INSERM (INSTITUT NATIONAL DE LA SANTÉ EAT DE LA RECHERCHE …, priority 2019, published 2022)", "key": {"[1]": {"tested_on": "Myocardial nitric oxide synthase (NOS)", "experiment": "Myocardial nitric oxide synthase activity in hearts of BH4-treated mice", "type": "in vivo", "conditions": "hearts of 12.5-month-old WT mice treated with BH4 or vehicle, FIG. 4i", "experimental": "Myocardial nitric oxide synthase (NOS) activity was determined in hearts of 12.5-month-old WT mice treated with BH4 or vehicle using a commercial kit (Biovision). Briefly, pulverized heart aliquots were processed according to the manufacturer's instructions and fluorometric readouts (excitation: 360, emission: 450) were normalised to protein concentration determined by Bradford assay. Activity of recombinant NOS protein served as positive control."}, "11 month-old WT mice": {"tested_on": "11 month-old WT mice", "experiment": "In vivo intraperitoneal BH4 treatment of 11-month-old WT mice: cardiac phenotyping, plasma and hepatic PA", "experimental": "PA in a dose of 200 mg/kg twice a day or vehicle (1×PBS) was subcutaneously administered to 11 month-old WT mice (Janvier Labs, France) in vivo for a month. BH4 in a dose of 10 mg/kg/die 2×/die or vehicle (1×PBS with 10 mM sodium ascorbate and citric acid to pH 4.5) was intraperitoneally administered to 11 month-old WT mice in vivo over six weeks. General state of the mice (body weight & wellbeing) was closely monitored.\n(§1) Data acquisition for a single cohort was performed by a single operator (JT or ER). Images were acquired from a parasternal position at the level of the papillary muscles using a 13-MHz linear-array transducer with a digital ultrasound system (Vivid 7, GE Medical System, Horton, Norway). Left ventricular dimensions and ejection fraction, anterior and posterior wall thicknesses were serially obtained from M-mode acquisition. Relative LV wall thickness (RWT) was defined as the sum of septal and posterior wall thickness over LV end-diastolic diameter, and LV mass was determined using the uncorrected cube assumption formula (LV mass=(AWTd+LVEDD+PWTd)^3−(LVEDD)^3). Peak systolic values of radial strain rate of the anterior and posterior wall were obtained using Tissue Doppler Imaging (TDI) as previously described.^2 TDI loops were acquired from parasternal view with a careful alignment with the radial component of the deformation' at a mean frame rate of 514 fps and a depth of 1 cm. The Nyquist velocity limit was set at 12 cm/s. Radial strain rate analysis was performed offline using the EchoPac Software (GE Medical Systems) blindly by a single operator (GD). Peak systolic of radial strain rate was computed from a region of interest positioned in the mid anterior wall and was measured over an axial distance of 0.6 mm. The temporal smoothing filters were turned off for all measurements. Because of the inevitable respiratory variability, we averaged peak systolic of radial strain rate on 8 consecutive cardiac cycles.\n(§2) In vivo haemodynamic measurements were performed just before mice of indicated ages were sacrificed.' Haemodynamic evaluation was performed in mice placed on a homeothermic operating table in supine position under 1.5% isoflurane anesthesia with spontaneous breathing. A 1.4-Fr microcatheter (Millar Instruments, Houston, USA) was calibrated manually before each experiment, inserted via the right carotid artery into the aorta and subsequently advanced to the left ventricle. Data were collected after at least 10 min of baseline, using the lowest isoflurane concentration tolerated to ensure minimal cardiodepression during measurement of peak rates of isovolumetric pressure development (dP/dtmax) and pressure decay (dP/dtmin). The microcatheter was then withdrawn to the aorta for measurement of systolic and diastolic pressure. Data were analyzed using the IOX software (EMKA, France).\n(§3) All mice were weighed, euthanized by cervical dislocation, followed by rapid excision of the organs of interest. The heart was cannulated through the aorta for perfusion with ice-cold 1×PBS, then blotted and weighed. The heart was cut in half perpendicular to its axis: the apical two-third was snap-frozen in liquid nitrogen, whilst the basic one-third was recannulated through the aorta, perfused with 10% formalin for histology. Hearts were kept in formalin at 4° C. for at least 24-48 hours before embedding. Snap-frozen tissues were kept at −80° C., until they were powdered using a mortar and pestle cooled with liquid nitrogen and collected as aliquots. Livers and kidneys were processed in a similar manner.\nFormalin-fixed organs were embedded in paraffin. Cross-sections were cut into 7 μm thickness using a rotary microtome (Leica). To assess cardiac fibrosis, Sirius red staining was performed, followed by dehydration and mounting with Eukitt quick-hardening mounting medium (Sigma). […]"}, "WT mice": {"tested_on": "WT mice", "experiment": "In vivo subcutaneous PA treatment of WT mice: cardiac phenotyping", "experimental": "[…] […] General state of the mice (body weight & wellbeing) was closely monitored.\nas §1, §2, §3\nFormalin-fixed organs were embedded in paraffin. Cross-sections were cut into 7 μm thickness using a rotary microtome (Leica). To assess cardiac fibrosis, Sirius red staining was performed, followed by dehydration and mounting with Eukitt quick-hardening mounting medium (Sigma). To visualise cardiomyocyte hypertrophy, sections were incubated in 2 μg/mL Texas red-conjugated wheat germ agglutinin (WGA; Invitrogen) in 1×PBS at room temperature for 45 minutes. Slides were then mounted with fluorescent mounting media (Abcam). Images were acquired using a Zeiss fluorescent microscope. Whole-mount preparations were made of hearts and livers of 2- and 15-month-old p21-mCherry reporter mice. […]"}, "[2]": {"conditions": "older group (11 month-old at start), PA 200 mg/kg twice a day, one month"}}, "data": [{"smiles": "CC(O)C(O)C1CNc2nc(N)[nH]c(=O)c2N1", "note": "(stereo not drawn) [BH4, 2-amino-6-(1,2-dihydroxypropyl)-5,6,7,8-tetrahydro-3H-pteridin-4-one]", "values": [{"measurement": "myocardial nitric oxide synthase activity", "setting": "[1]", "value": "without altering"}, {"measurement": "plasma PA", "setting": "11 month-old WT mice; 11-month-old WT mice, BH4 10 mg/kg i.p. twice a day over 6 weeks, FIG. 4a", "value": "reduce plasma PA to young levels"}, {"measurement": "systemic arterial pressures", "setting": "11 month-old WT mice; 11-month-old WT mice, BH4 10 mg/kg i.p. twice a day over 6 weeks, FIG. 4f", "value": "without lowering"}, {"measurement": "interstitial fibrosis (Sirius red, vimentin)", "setting": "11 month-old WT mice; 11-month-old WT mice, BH4 10 mg/kg i.p. twice a day over 6 weeks, FIG. 4g-h", "value": "normalised"}, {"measurement": "senescent myocardial expression of p21, Pah, Gch1 & 2-SC", "setting": "11 month-old WT mice; 11-month-old WT mice, BH4 10 mg/kg i.p. twice a day over 6 weeks, FIG. 4j", "value": "suppressing"}, {"measurement": "HW/TL (heart weight to tibia length)", "setting": "11 month-old WT mice; 11-month-old WT mice, BH4 10 mg/kg i.p. twice a day over 6 weeks, to young values, FIG. 4b", "value": "ameliorated"}, {"measurement": "contractility (systolic strain rate, dP/dtmax)", "setting": "11 month-old WT mice; 11-month-old WT mice, BH4 10 mg/kg i.p. twice a day over 6 weeks, to young values, FIG. 4c-d", "value": "ameliorated"}, {"measurement": "relaxation (dP/dtmin)", "setting": "11 month-old WT mice; 11-month-old WT mice, BH4 10 mg/kg i.p. twice a day over 6 weeks, to young values, FIG. 4e", "value": "ameliorated"}, {"measurement": "Pah in liver (immunofluorescence)", "setting": "11 month-old WT mice; 12.5-month-old WT mice, BH4 vs. vehicle, FIG. 4s", "value": "re-expressed"}, {"measurement": "hepatic PA content", "setting": "11 month-old WT mice; 12.5-month-old WT mice, BH4 vs. vehicle, FIG. 4t", "value": "reduced"}, {"measurement": "course of drug treatment (body weight & wellbeing monitored)", "setting": "11 month-old WT mice; BH4 10 mg/kg twice a day intraperitoneally over six weeks", "value": "completed as scheduled without incidents"}, {"measurement": "hepatic Pah activity", "setting": "11 month-old WT mice; BH4-treated WT mice, data not shown", "value": "improved"}]}, {"smiles": "N[C@@H](Cc1ccccc1)C(=O)O", "note": "[PA, (S)-2-Amino-3-phenylpropanoic acid]", "values": [{"measurement": "course of drug treatment (body weight & wellbeing monitored)", "setting": "WT mice; PA 200 mg/kg twice a day subcutaneously for a month", "value": "completed as scheduled without incidents"}, {"measurement": "LV ejection fraction", "setting": "WT mice; PA 200 mg/kg twice a day, one month, FIG. 3h", "value": "unaltered"}, {"measurement": "Plasma PA levels", "setting": "WT mice; WT mice 5 vs. 11 month-old at start, PA 200 mg/kg twice a day over one month", "value": "increased in both age-groups, but were considerably higher in older animals"}, {"measurement": "tolerability / weight loss", "setting": "WT mice; WT mice, PA 200 mg/kg twice a day over one month, data not shown", "value": "tolerated PA treatment well without significant weight loss"}, {"measurement": "hepatic PA levels", "setting": "WT mice; livers of PA-treated 6-month-old WT mice vs. 12-month-old WT mice, FIG. 4m", "value": "comparable"}, {"measurement": "cardiac hypertrophy (HW/TL)", "setting": "WT mice; [2]", "value": "no change"}, {"measurement": "cardiomyocyte size (cross-sectional area)", "setting": "WT mice; [2]", "value": "no change"}, {"measurement": "myocardial interstitial fibrosis (Sirius red)", "setting": "WT mice; [2]", "value": "no change"}, {"measurement": "cardiac hypertrophy (HW/TL)", "setting": "WT mice; young animals (5 month-old at start), PA 200 mg/kg twice a day, one month, FIG. 3c", "value": "increase"}, {"measurement": "cardiomyocyte size (cross-sectional area)", "setting": "WT mice; young animals, PA 200 mg/kg twice a day, one month, FIG. 3e", "value": "increase"}, {"measurement": "myocardial interstitial fibrosis (Sirius red)", "setting": "WT mice; young animals, PA 200 mg/kg twice a day, one month, FIG. 3f", "value": "increase"}, {"measurement": "systolic strain rate", "setting": "WT mice; young group, PA 200 mg/kg twice a day, one month, FIG. 3i", "value": "reduced"}, {"measurement": "dP/dtmax", "setting": "WT mice; young group, PA 200 mg/kg twice a day, one month, FIG. 3j", "value": "reduced"}, {"measurement": "dP/dtmin", "setting": "WT mice; young group, PA 200 mg/kg twice a day, one month, FIG. 3k", "value": "reduced"}, {"measurement": "myocardial senescence: p21, Pah, Gch1, 2-SC and 4-HNE", "setting": "WT mice; young hearts, PA 200 mg/kg twice a day, one month, FIG. 3l", "value": "upregulation"}]}]}
